How the values were obtained:
Assay in all cases: CelltiterGlo viability cell assay
Type in all cases: cell-based
CAL851 = conditions: up to 30 μM; days 3 and 6; Prdm9 expressing line
Description: (§1) Supplementary Figure 13. […] Viability of
(§2) (a) Multiple Myeloma lines and (b) Breast Cancer cell lines following 3 or 6 days treatment with […]
(§3) manufacturer’s instructions as described in the Supplementary methods. Data are normalized to DMSO control. N=3 biological replicates, +/- SEM. Source data are provided as a Source Data […]
(§4) CelltiterGlo viability cell assay
(§5) Cells were seeded in 96 well plates at per-well densities of 10000 (MDA-MB436, ATCC-HTB130), 15000 (8226, kind gift from Rodger Tiedemann, Princess Margaret Cancer Centre), […]
(§6) kind gift from Rodger Tiedemann, Princess Margaret Cancer Centre) and 50000 (CAL851, kind gift from Mathieu Lupien, Princess Margaret Cancer Centre) and were treated at increasing concentrations of compounds ranging from 0.01 μM to 30 μM and assessed for proliferation using CelltiterGlo (Promega) following manufacturer’s instructions, as readout on days 3 and 6 as indicated. All cell lines were mycoplasma negative, as determined by MycoAlert™ Mycoplasma Detection Kit(Lonza). […]

HCC1143 = conditions: up to 30 μM; days 3 and 6; matched control line
Description: as §1, §2, §3, §4, §5, §6

HCC1806 = conditions: up to 30 μM; days 3 and 6; Prdm9 expressing line
Description: as §1, §2, §3, §4, §5, §6

MDA-MB-436 = conditions: up to 30 μM; days 3 and 6; matched control line
Description: as §1, §2, §3, §4, §5, §6

RPMI-8226 = conditions: up to 30 μM; days 3 and 6; matched control line
Description: as §1, §2, §3, §4, §5, §6

SKMM2 = conditions: up to 30 μM; days 3 and 6; Prdm9 expressing line
Description: as §1, §2, §3, §4, §5, §6

Measured: Effect on proliferation (in words)

COc1cc(OC)cc(-c2noc(N3CCN(C)C4(CCN(c5ccccc5)CC4)C3)n2)c1 [MRK-740-NC]
did not have any significant effect: all assays above
